From US10981932B2, “Macrocyclic indole derivatives” (Bayer Aktiengesellschaft, priority 2016, dated 2021)
Structures can show the parent of a compound that is named as a salt. Where two headings read alike, the source gives them in different places.

Columns and labels:
A2780 = test: Anti-proliferative effect (CellTiter-Glo, 72 h), A2780; format: cell-based; settings: A2780 cells, median, read-out: IC50 antiproliferation assay A2780 [M] (median)
How it was run: (§1)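 Cells were treated with compounds for 72 h at 37 °C in a humidified incubator, and viability was measured by CellTiter-Glo luminescence. A parallel day 0 plate, read the same way, gave the time zero baseline.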

SUDHL5 [1] = test: Anti-proliferative effect (CellTiter-Glo, 72 h), SUDHL5; format: cell-based; settings: SUDHL5 cells, antiproliferation, median, read-out: Antiproli SUDHL5 [M] (median)
How it was run: as §1

MCL-1 = MCL-1 (Homo sapiens, UniProt Q07820); test: Protein-protein interaction assay MCL-1/Noxa BH3 peptide (MCL-1 assay), TR-FRET; format: binding; settings: MBP-MCL-1 / Noxa BH3-derived peptide, median
MCL-1, sequence (Q07820 whole entry): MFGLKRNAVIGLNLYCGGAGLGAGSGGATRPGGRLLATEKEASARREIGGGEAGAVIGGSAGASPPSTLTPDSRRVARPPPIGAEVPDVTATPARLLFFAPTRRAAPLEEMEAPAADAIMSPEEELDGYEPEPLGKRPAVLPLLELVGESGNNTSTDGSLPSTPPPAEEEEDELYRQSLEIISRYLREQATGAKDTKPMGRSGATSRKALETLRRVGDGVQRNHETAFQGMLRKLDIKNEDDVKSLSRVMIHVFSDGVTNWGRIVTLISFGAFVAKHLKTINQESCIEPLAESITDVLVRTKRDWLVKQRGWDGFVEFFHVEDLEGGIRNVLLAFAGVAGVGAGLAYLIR
How it was run: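 TR-FRET, 665/622 nm emission ratio (excitation 330–350 nm), measured MCL-1/Noxa complex formation. 1 nM MBP-MCL-1, 50 mM Tris/HCl pH 7, 0.1% BGG, 2 mM DTT. Incubation 1 h at 22 °C, then overnight at 4 °C. IC50 by 4-parameter regression, normalized to DMSO (0%) and no-MCL-1 (100%) controls.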

SUDHL10 [2] = test: Anti-proliferative effect (CellTiter-Glo, 72 h), SUDHL10; format: cell-based; settings: SUDHL10 cells, antiproliferation, median, read-out: Antiproli SUDHL10 [M] (median)
Method: Assessment of the Anti-Proliferative Effect of Compounds in Different Cell Lines
The impact of compounds on the proliferation of different cell lines was assessed using the CellTiter-Glo® Luminescent Cell Viability reagent from Promega (G7573). Of note, SUDHL10 and SUDHL5 (DLBCL), NCI-H929 (Multiple Myeloma), A2780 (ovarian carcinoma) as well as MV-4-11(AML) cells are sensitive to MCL-1 inhibition.
In parallel, cells were plated in a reference (day 0) plate for time zero determination.
Rim wells were excluded. The cells were incubated for 72 h hours in a humidified incubator at 37° C. The day 0 plate was measured by adding 30 μl/well of CTG solution (CellTiter-Glo® Luminescent Cell Viability reagent, Promega G7573) to time zero wells in the reference plate followed by a 10 minutes incubation and luminescence reading at 0.1 ms, using the PHERAstar FS microplate reader (BMG Labtech).
After 72 h incubation, the treated plates were measured in the same way as the day 0 plate mentioned above.

SUDHL5 [3] = test: Induction of caspase-3/7 activity (Caspase-Glo 3/7), SUDHL5; format: cell-based; settings: caspase-3/7 induction, SUDHL5 cells, 3 h treatment, median
How it was run: (§2)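 DLBCL cells treated with compounds for 3 h at 37 °C, then caspase-3/7 activity read by Caspase-Glo 3/7 luminescence. Medium-only background subtracted; EC50 fitted with C0 fixed at 1 and top set to the reference compound's maximal induction.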

SUDHL5 [4] = test: Induction of cytotoxicity (CellTiter-Glo, 5 h), SUDHL5
SUDHL10 [5] = test: Induction of caspase-3/7 activity (Caspase-Glo 3/7), SUDHL10; format: cell-based; settings: caspase-3/7 induction, SUDHL10 cells, 3 h treatment, median
How it was run: as §2

SUDHL10 [6] = test: Induction of cytotoxicity (CellTiter-Glo, 5 h), SUDHL10
[7] = Homo sapiens, SU-DHL-5, 72 h, 72 h incubation
[8] = Homo sapiens, SU-DHL10, 72 h, 72 h incubation
[9] = Homo sapiens, SU-DHL-5, 5 h, read-out: Cytotox SUDHL5 [M] (median), SUDHL5 cells, cytotoxicity induction, CellTiter-Glo, 5 h incubation, median
[10] = Homo sapiens, SU-DHL10, 5 h, read-out: Cytotox SUDHL10 [M] (median), SUDHL10 cells, cytotoxicity induction, CellTiter-Glo, 5 h incubation, median
[11] = read-out: Cytotox SUDHL5 [M] (median), SUDHL5 cells, cytotoxicity induction, CellTiter-Glo, 5 h incubation, median
[12] = read-out: Cytotox SUDHL10 [M] (median), SUDHL10 cells, cytotoxicity induction, CellTiter-Glo, 5 h incubation, median

SMILES | IC50 (A2780) [M] | IC50 (A2780; Homo sapiens, A2780, 72 h) [M] | IC50 (SUDHL5 [1]; [7]) [M] | IC50 (MCL-1) [µM] | IC50 (SUDHL10 [2]; [8]) [M] | EC50 (SUDHL5 [3]; Homo sapiens, SU-DHL-5, 3 h) [µM] | IC50 (SUDHL5 [4]; [9]) [M] | EC50 (SUDHL10 [5]; Homo sapiens, SU-DHL10, 3 h) [µM] | IC50 (SUDHL10 [6]; [10]) [M] | IC50 (SUDHL5 [1]; 72 h incubation) [M] | IC50 (SUDHL10 [2]; 72 h incubation) [M] | EC50 (SUDHL5 [3]) [µM] | IC50 (SUDHL5 [4]; [11]) [M] | EC50 (SUDHL10 [5]) [µM] | IC50 (SUDHL10 [6]; [12]) [M] | IC50 (SUDHL5 [1]; 72 h) [M] | IC50 (SUDHL10 [2]; 72 h) [M] | IC50 (SUDHL5 [4]; read-out: Cytotox SUDHL5 [M] (median), SUDHL5 cells, cytotoxicity induction, CellTiter-Glo, 5 h, median) | IC50 (SUDHL10 [6]; Homo sapiens, SU-DHL10, 5 h, read-out: Cytotox SUDHL10 [M] (median), SUDHL10 cells, cytotoxicity induction, CellTiter-Glo, 5 h, median)
CCCc1nn(C)c2c1-c1c(C)ccc3c(CCCOc4cccc5ccccc45)c(C(=O)O)n(c13)CCCCOC2 (racemic) [Example 187, (rac)-1,4-dimethyl-7-[3-(naphthalen-1-yloxy)propyl]-3-propyl-1,10,11,12,13,15-hexahydropyrazolo[4′,3′:9,10][1,6]oxazacycloundecino[8,7,6-hi]indole-8-carboxylic Acid] | > 3.3e-05 | 2.17e-05 | 7.27e-06 | 0.00261 | 1.41e-05 | 3.71 | 3.85e-06 | 13.3 | 1.07e-05 | – | – | – | – | – | – | – | – | – | –
Cc1ccc2c(CCCOc3cccc4ccccc34)c(C(=O)O)n3c2c1-c1c(nn(C)c1C)COCCCC3 (single isomer, unassigned; enantiomer 2) [Example 077, 2,3,4-trimethyl-7-[3-(naphthalen-1-yloxy)propyl]-2,10,11,12,13,15-hexahydropyrazolo[4′,3′:9,10][1,6]oxazacycloundecino[8,7,6-hi]indole-8-carboxylic Acid (Enantiomer 2)] | 2.06e-05 | – | – | 0.0342 | – | – | – | – | – | 2.73e-05 | 1.17e-05 | > 33 | > 3.3e-05 | > 33 | > 3.3e-05 | – | – | – | –
Cc1c2c(nn1C)CN(C)CCCCn1c(C(=O)O)c(CCCOc3cccc4ccccc34)c3cccc-2c31 (single isomer, unassigned; enantiomer 2) [Example 069, 2,3,14-trimethyl-7-[3-(naphthalen-1-yloxy)propyl]-10,11,12,13,14,15-hexahydro-2H-pyrazolo[3′,4′:8,9][1,6]diazacycloundecino[10,11,1-hi]indole-8-carboxylic Acid (Enantiomer 2)] | > 3.3e-05 | – | – | 0.162 | – | – | – | – | – | > 3.3e-05 | 2.11e-05 | > 33 | > 3.3e-05 | > 33 | > 3.3e-05 | – | – | – | –
COc1ccc(OCc2nn(C)c3c2-c2cccc4c(CCCOc5cccc6ccccc56)c(C(=O)O)n(c24)CCCCOC3)cc1 (single isomer, unassigned; enantiomer 1) [Example 320, 3-[(4-methoxyphenoxy)methyl]-1-methyl-7-[3-(naphthalen-1-yloxy)propyl]-1,10,11,12,13,15-hexahydropyrazolo[4′,3′:9,10][1,6]oxazacycloundecino[8,7,6-hi]indole-8-carboxylic Acid-N-ethylethanamine Salt (Enantiomer 1)] | – | 1.41e-05 | – | 0.0226 | – | – | – | – | – | – | – | 13.8 | – | – | – | 5.43e-06 | 9.36e-06 | 1.1e-05 | 2.29e-05
CCn1nc(C2CC2)c2c1COCCCCn1c(C(=O)O)c(CCCOc3cccc4ccccc34)c3cccc-2c31 (single isomer, unassigned; enantiomer 1) [Example 089, 3-cyclopropyl-1-ethyl-7-[3-(naphthalen-1-yloxy)propyl]-1,10,11,12,13,15-hexahydropyrazolo[4′,3′:9,10][1,6]oxazacycloundecino[8,7,6-hi]indole-8-carboxylic acid-N-ethylethanamine Salt (Enantiomer 1)] | – | > 3.3e-05 | 1.71e-05 | 0.00384 | – | – | – | 24.1 | 3e-05 | – | – | 6.76 | 7e-06 | – | – | – | – | – | –
CCc1c2c(nn1CCN1CCOCC1)COCCCCn1c(C(=O)O)c(CCCOc3cccc4ccccc34)c3cccc-2c31 (racemic) [Example 201, (rac)-3-ethyl-2-[2-(morpholin-4-yl)ethyl]-7-[3-(naphthalen-1-yloxy)propyl]-2,10,11,12,13,15-hexahydropyrazolo[4′,3′:9,10][1,6]oxazacycloundecino[8,7,6-hi]indole-8-carboxylic Acid] | – | – | 4.3e-06 | 0.00427 | 7.54e-06 | 2.53 | 2.57e-06 | 8.57 | 7.98e-06 | – | – | – | – | – | – | – | – | – | –
